Assay results taken from US20260315499A1, “2'- {HETEROCYCLYL (ARYL/ALKYL) METHYL} - CANNABIDIOL COMPOUNDS AND PROCESS FOR PREPARATION THEREOF” (COUNCIL OF SCIENTIFIC & INDUSTRIAL RESEARCH, priority 2023, published 2026).
“And” between values parts separate entries of the source, which are not always exact repeats. Equal entries are not always repeated. Where two headings read alike, the source gives them in different places.

Columns and labels:
[1] = Cell viability assay in differentiated neuronal cells (MTT), SHSY5Y; assay type: cell-based; settings: human, read-out: % Cell viability ± SD, SHSY5Y
Description: (§1) In the present disclosure outlined herein, a focused library of cannabidiol analogues were studied for possible neuro-protective potential employing cell line-based stress model systems which mimic the biological stress conditions in vitro (J Cell Biochem., 2018, 119(8), 6482-6491).
(§2) Human neuroblastoma cells (SHSY5Y) and mouse neuroblastoma cells (N2A) were procured from American Type Culture Collection (ATCC). SHSY5Y cell cultures were maintained in DMEM F12 (Invitrogen) whereas N2A were cultured in DMEM (Invitrogen) with 10% Fetal Bovine Serum (Gibco) medium, subjected to differentiation to acquire neuronal morphology (employing differentiation media DMEM-F12, 3-5% FBS, (For differentiation, low concentration of FBS was used) and 50 μM retinoic acid). Differentiated cells were later seeded into 96 well plates, at a density of 1×10^4 before being incubated for 48 hrs with the synthesized library. The exhausted culture media was substituted with new culture media containing 0.5 mg/ml MTT dye. Eventually, the OD at 490 nm excitation was measured using a 96-well plate reader. The proportion of viable cells was determined as percentage of absorbance of untreated cultures relative to control.

[2] = tested on: nitric oxide (NO) production in RAW264.7 macrophages; assay: In vitro anti-inflammatory activity: nitric oxide production (Griess) in LPS-exposed RAW264.7 macrophages; assay type: cell-based, mouse; settings: LPS 24 hrs
Description: Measurement of Nitric oxide: RAW264.7 macrophages were seeded in 96-well plates with a density of 0.5×10^5 cells/well and incubated overnight at 37° C. in a 5% CO2 atmosphere. The cells were treated with different concentration of CBD and its analogues and exposed to LPS for 24 hrs. For nitric oxide (NO) determination, the cell culture supernatant was taken and mixed with equal volume of Griess reagent in another 96 well plate at room temperature (Biomed Pharmacother., 2017, 92, 175-186). The absorbance was measured at 540 nm. The final calculations were determined on a NaNO2 standard curve.

[3] = Cell viability assay in differentiated neuronal cells (MTT), N2A; assay type: cell-based; settings: mouse, read-out: % Cell viability ± SD, N2A
Description: as §1, §2

[4] = Cell viability assay in macrophage RAW264.7 cells (MTT); assay type: cell-based; settings: mouse, read-out: % cell viability ± SD
Description: RAW264.7 cells were seeded in 96-well cell culture plates at a density of 1×10^4 cells per well and incubated overnight at 37° C. with 5% CO2. Next day, the cells were treated with CBD or its derivatives at 5 μM and/or 10 μM concentration for 24 hrs. The MTT dye (2.5 mg/ml, 20 μL) was added to each well 4 hrs before termination (Molecules. 2022, 27, 8068). After 4 hrs of incubation with MTT, the supernatant was discarded, and the formazan crystals were dissolved by adding 100 μL DMSO. The absorbance was recorded at 540 nm on microplate reader (Tecan Infinite Pro).

TrkB stable cells SHSY5Y = assay: Cytoprotective effect in TrkB stable cells SHSY5Y, 96 hrs; assay type: cell-based, human; settings: Homo sapiens, SH-SY5Y, 96 h
Description: In another experiment, the cytoprotective effect of A1 as well as parent molecule B1 was determined in TrkB stable cells SHSY5Y.

Anti BDNF [5] = assay: Survival pathway protein expression by western blotting in SHSY5Y; assay type: cell-based, human; settings: after corticosterone insult
Description: (§3) Here, A1 was tested to find its role in eliciting survival pathway proteins in differentiated human neuroblastoma cells in concentration and time dependent manner.
(§4) To investigate the effect of A1 on the survival proteins, SHSY5Y cell cultures were treated with different concentrations for 6 hrs and analyzed for the expression of survival proteins, including p-Erk 44/42, p-AKT 473, Anti BDNF, and p TrkB 816 and p TrKB 515 by western blotting.

p TrkB 816 = assay: as above; assay type: cell-based, human
Description: as §3, §4

p TrkB 515 = assay: as above; assay type: cell-based, human
Description: as §3, §4

p-Erk 44/42 [6] = assay: as above; assay type: cell-based, human; settings: after corticosterone insult
Description: as §3, §4

p-AKT 473 = assay: as above; assay type: cell-based, human
Description: as §3
To investigate the effect of A1 on the survival proteins, […] of survival proteins, including p-Erk 44/42, p-AKT 473, Anti BDNF, and p TrkB 816 and p TrKB 515 by western blotting.

depression mice model [7] = assay: In vivo corticosterone induced depression model: sucrose preference test; parameters: species or system mouse (male C57); settings: 2% sucrose, 21 days
Description: (§5) In vivo efficacy (ameliorates behavioral despair) of A1 in corticosterone induced model of stress (J. Neurochem., 2018 146, 722 734). […] A1 (20 mg/kg, oral) dissolved in normal saline was given for 3 consecutive weeks following corticosteroid stress. The sucrose preference test was employed, tail suspension test, and forced swim test to evaluate behavioral distress. We noticed that A1 can resurrect mice in stressful situations. […]
Sucrose consumption was employed to evaluate anhedonia, a core hallmark of depression in mice. The animals were allowed unfettered access to both identical bottles, one containing water while the other contained a 2% solution of sucrose, for 21 days.
The below equation was later employed to determine water and sugar consumed by mice:
Sucrose Preference=Sucrose consumed[…]/Total fluid intake.

depression mice model [8] = assay: In vivo corticosterone induced depression model: Tail Suspension Test (TST); parameters: species or system mouse (male C57)
Description: A1 (20 mg/kg, oral) dissolved in normal saline was given for 3 consecutive weeks following corticosteroid stress. The sucrose preference test was employed, tail suspension test, and forced swim test to evaluate behavioral distress.
Tail Suspension Test (TST) is a behavioral test employed to assess perturbations expected to influence depression like phenotypes. TST is grounded on the reflection that the extent of immobility is allied with depressing phenotype of mice overturned by antidepressants. Mice were positioned 2 cm from their tail tips and 5 cm above the ground suspending the tails using adhesive tape for the free movement (Acta Neuropathol Commun., 2016, 4(1), 108).
The contemporary immobility was alluded to as interruption in motion, where a blind assessor evaluates the disappointed aspect of display before scoring it.

Anti BDNF [9] = assay: Survival pathway protein expression by western blotting in SHSY5Y; assay type: cell-based, human; settings: Cort. 400 μM, 6 hrs
[10] = In vivo corticosterone induced depression model: effect on body weight; parameters: species or system mouse (male C57); settings: 21 days
Description: as §5

p-Erk 44/42 [11] = assay: Survival pathway protein expression by western blotting in SHSY5Y; assay type: cell-based, human; settings: Cort. 400 μM, 6 hrs
depression mice model [12] = assay: In vivo corticosterone induced depression model: Forced Swim Test; parameters: species or system mouse (male C57)
Description: as §5
The forced swim test was employed to evaluate behavioral melancholy in depressed subjects. Each animal was individually conditioned in a glass cylinder 20 cm long, 10 cm deep and 14 cm radius of curvature. After being submerged in water for 5 mins, the mice's cumulative stationary episode, struggle in water, and eventual floating condition were evaluated. The duration for which the animals were motionless while attempting to hold both of their front limbs still was calculated by interpreting the visualizations portraying behavioral despair (Front Behav Neurosci., 2018, 12, 42).

[13] = Cort. alone, listed as corticosterone
[14] = without Cort., A1 20 mg/kg, fluoxetine 18 mg/kg

C=C(C)[C@@H]1CCC(C)=C[C@H]1c1c(O)cc(CCCCC)cc1O [B1, cannabidiol]
viability at 48 h, 20 µM [1]: 108 ± 1.13% | inhibition at 5 µM ([2]; Mus musculus, RAW264.7, 5 μM, read-out: % NO Inhibition ± SD): 24.3 ± 3.2% | inhibition at 10 µM ([2]; Mus musculus, RAW264.7, 10 μM, read-out: % NO Inhibition ± SD): 38.3 ± 3.7% | production of NO (in words) ([2]; pre-treated): decreased | viability at 48 h, 20 µM [3]: 107 ± 1.53% | viability at 24 h, 5 µM ([4]; RAW264.7, 5 μM): 95.5 ± 1.5% | viability at 24 h, 10 µM ([4]; RAW264.7, 10 μM): 91 ± 1.6% | viability at 20 µM (TrkB stable cells SHSY5Y; read-out: % Cell viability ± SD, test compound 20 μM + Cort. 400 μM, 96 hrs): 86.7 ± 1.16% | viability at 20 µM (TrkB stable cells SHSY5Y; read-out: % Cell viability ± SD, test compound alone, 20 μM, 96 hrs): 102 ± 1.06%

C[C@]12C[C@H](O)[C@H]3[C@@H](CCC4=CC(=O)CC[C@@]43C)[C@@H]1CC[C@@H]2C(=O)CO [Cort., corticosterone, reference compound]
anti BDNF level (in words) (Anti BDNF [5]): decrease | Relative Protein Expression p TrkB 816 (p TrkB 816; Cort. 400 μM, 6 hrs): 0.36 | p TrkB 816 level (in words) (p TrkB 816; after corticosterone insult): decrease | Relative Protein Expression p TrkB 515 (p TrkB 515; Cort. 400 μM, 6 hrs): 0.15 | p TrkB 515 level (in words) (p TrkB 515; after corticosterone insult): decrease | p-Erk 44/42 level (in words) (p-Erk 44/42 [6]): decrease | Relative Protein Expression PAKT 473 (p-AKT 473; Cort. 400 μM, 6 hrs): 0.01 | p-AKT 473 level (in words) (p-AKT 473; after corticosterone insult): decrease | % Sucrose consumption (ml) ± SD (depression mice model [7]; Cort. alone, negative control): 43.50 ± 3.35% | % Sucrose consumption (ml) ± SD (depression mice model [7]; Cort. alone, negative control, listed as corticosterone): 43.50±3.35% | % Immobility (sec) ± SD (dead time) (depression mice model [8]; Cort. alone): 52.32 ± 9.96 s | % Latency to immobility (sec) ± SD (depression mice model [8]; Cort. alone): 6.97 ± 4.52 s | % Immobility (sec) ± SD (dead time) (depression mice model [8]; [13]): 52.32 ± 9.96 s | % Latency to immobility (sec) ± SD (depression mice model [8]; [13]): 6.97 ± 4.52 s | Relative Protein Expression Anti BDNF (Anti BDNF [9]): 0.10 | Weight (g) ± SD ([10]; Cort. alone 35 μg/ml, negative control): 29.57 ± 3.90 g | Weight (g) ± SD ([10]; Cort. alone 35 μg/ml, negative control, listed as corticosterone): 27.40 ± 1.91 g | Relative Protein Expression p ERK 44/42 (p-Erk 44/42 [11]): 0.36 | % Immobility (sec) ± SD (dead time) (depression mice model [12]; Cort. alone 35 μg/ml): 67.15 ± 12.32 s | % Latency to immobility (sec) ± SD (depression mice model [12]; Cort. alone 35 μg/ml): 16.14 ± 5.68 s

CNCCC(Oc1ccc(C(F)(F)F)cc1)c1ccccc1 (stereo not drawn) [Fluoxetine]
% Sucrose consumption (ml) ± SD (depression mice model [7]; with Cort.): 72.39 ± 2.69% | % Sucrose consumption (ml) ± SD (depression mice model [7]; without Cort.): 82.10 ± 0.29% | % Latency to immobility (sec) ± SD (depression mice model [8]; with Cort. 35 μg/ml, A1 20 mg/kg, fluoxetine 18 mg/kg): 34.79 ± 6.38 s | % Latency to immobility (sec) ± SD (depression mice model [8]; with Cort. 35 μg/ml, A1 20 mg/kg, fluoxetine 18 mg/kg, listed as fluoxetine): 34.79 ± 6.38 s | % Immobility (sec) ± SD (dead time) (depression mice model [8]; [14]): 19.61 ± 7.90 s and 19.61 s | % Latency to immobility (sec) ± SD (depression mice model [8]; [14]): 49.51 ± 7.84 s and 49.51 ± 7.82 s | Weight (g) ± SD ([10]; with Cort. 35 μg/ml, A1 20 mg/kg oral, fluoxetine 18 mg/kg): 38 ± 2.16 g | Weight (g) ± SD ([10]; without Cort., A1 20 mg/kg oral, fluoxetine 18 mg/kg): 40.42 ± 2.25 g | % Immobility (sec) ± SD (dead time) (depression mice model [12]; with Cort.): 47.84 ± 10.33 s | % Latency to immobility (sec) ± SD (depression mice model [12]; with Cort.): 34.06 ± 11.21 s | % Immobility (sec) ± SD (dead time) (depression mice model [12]; with Cort., listed as fluoxetine): 47.84 ± 10.33 s | % Immobility (sec) ± SD (dead time) (depression mice model [12]; without Cort.): 22.39 ± 4.91 s | % Latency to immobility (sec) ± SD (depression mice model [12]; without Cort.): 55.34 ± 15.71 s
